Measurements from patent US20230357320A1, “HELICAL STAPLED PEPTIDES AND USES THEREOF” (FOG PHARMACEUTICALS, INC., priority 2020, published 2023).
Values after ≈ are worked out from the molar mass of the structure shown. Read-outs that look alike come from different tables or passages of the source. Starred links: 1 amine or outer side, 2 acyl side, 3 side chain; linkers in the order of their positions; H or OH if unused. Positions of bridges follow the written chain, without caps; N, C: chain ends. Non-standard residues stand in square brackets, D forms with d. Residues, ends and D or L forms follow the SMILES beside them. *: point of attachment. FITC = O=C1OC2(c3ccc(O)cc3Oc3cc(O)ccc32)c2ccc(NC(=S)*)cc21; X1 = O=C([C@]1(CC=[*:3])CCCN1[*:1])[*:2]; S5 = C=CCCC[C@](C)(N)C(=O)O; Nle = CCCC[C@H](N)C(=O)O; βAla = NCCC(=O)O

B1: FITC labeled ERL4 peptide (FITC-βAla-His-Pro-Leu-Leu-Nle-Arg-Leu-Leu-Leu-Ser-Pro-CONH2) (peptide)
peptide: {FITC}-[βAla]HPLL[Nle]RLLLSP-NH2
notes: Fluorescent probe of the FP assays; also called FITC-ERL4; FITC-ERL4 probe

How the values were obtained:
[1] = CHI Log D measurement (chromatographic hydrophobicity index); settings: reverse-phase HPLC, Phenomenex Gemini C-18 column, pH 7.4
[2] = PAMPA (Parallel Artificial Membrane Permeability Assay); design: Papp at 5 h: dose or concentration left out as unconfirmed;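 also: Phospholipid-membrane PAMPA, donor and acceptor in DPBS pH 7.4 with 5% DMSO, 37 °C for 5 h, compound in each well quantified by reverse-phase HPLC-MS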
ERβ LBD = molecular target: T1, ERβ LBD (Homo sapiens, UniProt Q92731); assay: Competition fluorescence polarization (FP) binding assay with FITC-ERL4 probe
T1 construct: pET28a+ vector containing ERβ LBD (residues from 261 to 500) along with an N-terminal His6-yBBr-TEV tag; His6 (N); yBBr (N); TEV cleavage site (N); made in house; host or cells: E. coli BL21(DE3) pLysS
Experimental: In addition to the PAMPA assay, to study the affinity of the first-generation ProLock™ stapled peptides to the Estrogen receptor p ligand-binding domain (ERβ LBD), a fluorescence polarization (FP) binding assay in competition format was used in the presence of the endogenous ERβ LBD ligand estradiol. Competition Fluorescence Polarization (FP) assay was performed on the peptides to determine their half-maximal effective concentration (EC50). To do this, FITC labeled ERL4 peptide (FITC-βAla-His-Pro-Leu-Leu-Nle-Arg-Leu-Leu-Leu-Ser-Pro-CONH2) was synthesized to be used as a fluorescence probe based on existing literature (Fuchs et al., Journal of the American Chemical Society 2013, 135 (11), 4364-4371). Direct FP was performed in black 384-well plates (Corning). The final volume of each assay well was 40 μL with constant concentration of FITC labeled ERL4 peptide (10 nM) and variable concentrations of ERβ LBD protein.
ERβ LBD expression and purification was performed as follows. BL21(DE3) pLysS E. coli cells were transformed with a pET28a+ vector containing ERβ LBD (residues from 261 to 500) along with an N-terminal His6-yBBr-TEV tag. An overnight culture in 10 mL of TB media containing 50 μg/mL kanamycin was prepared from a single bacterial colony. The overnight culture was subsequently added to 1 liter of autoclaved TB media containing 50 μg/mL kanamycin and shaken at 37° C. until an OD of 0.6-0.8 was reached. IPTG was added to the culture and left shaking for 6 hours. Bacterial culture was pelleted and resuspended in lysis buffer. Resuspended bacterial culture was incubated at 0° C. for 10 minutes before sonication at 65% amplitude with 10-sec cycles using a Branson Sonifier. The lysate was then cleared by centrifugation at 8000×g for 20 min. […] The expected molecular weight of the ERβ LBD protein is 30.8 KDa, which molecular weight was confirmed by SDS PAGE analysis. Purified ERβ LBD was concentrated to 90 μM and was stored at −80° C. buffer.
Competition FP assays were also employed. These were performed in black 384-well plates (Corning). The final volume of each assay well was 80 μL containing constant concentrations of estradiol (1 μM) and FITC labeled ERL4 (10 nM). The ERβ LBD concentration was held constant (200 nM) while varying the concentration of ProLock stapled peptides (3-fold dilution from 10 μM). Upon addition of samples to each well, the plate was centrifuged for 10 seconds at 3000 rpm and incubated at 4° C. for 1 hour. FP measurements were performed at room temperature with excitation and emission wavelengths at 485 and 535 nm using a Clariostar microplate reader (BMG Labtech). Each plate had high and low polarization samples, which are used to normalize the assay data. The competition FP results were analyzed by Prism 7 (GraphPad). The non-linear regression analysis of the data was used to determine the half-maximal effective concentration (EC50) of ProLock stapled peptides. […] The normalized FP values shown in FIG. 6 are mean±S.E.M of at least four independent replicates.

in vitro = assay: in vitro; design: dose or concentration left out as unconfirmed; settings: PAMPA, pH 7.4, PAMPA Pe
physchem = settings: pH 7.4
[3] = molecular target: T2, Estrogen receptor β ligand-binding domain (ERβ LBD), residues 261 to 500, with N-terminal His6-yBBr-TEV tag (UniProt Q92731 261-500); assay: direct fluorescence polarization; 10 nM probe, ERβ LBD titrated from 5 µM with estradiol; 1:1 binding model with Hill slope
T2 construct: range 261-500; Expressed in E. coli BL21(DE3) pLysS from pET28a+, purified by Ni-NTA and SEC; Assays were run in the presence of estradiol; also called ER LBD; not shown: N-terminal His6-yBBr-TEV tag
T2 sequence (Q92731 261-500): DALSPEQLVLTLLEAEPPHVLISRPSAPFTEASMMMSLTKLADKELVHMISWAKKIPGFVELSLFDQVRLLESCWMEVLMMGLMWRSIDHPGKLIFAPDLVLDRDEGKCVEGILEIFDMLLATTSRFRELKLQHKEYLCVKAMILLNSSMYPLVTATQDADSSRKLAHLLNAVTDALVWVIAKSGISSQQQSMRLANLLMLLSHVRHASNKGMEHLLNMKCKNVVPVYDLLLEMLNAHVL

Row | Molecule | chromatographic logD [1] | Papp at 5 h ([2]; PAMPA, pH 7.4) [×10⁻⁶ cm/s] | % Retention ([2]; Table 5, compound retained in solution at the end of the PAMPA assay compared to the input sample) [%] | EC50 (ERβ LBD) [nM] | PAMPA Pe | % Retention (PAMPA) [%] | Papp at 5 h (in vitro) [×10⁻⁶ cm/s] | solubility (physchem) [µM] | EC50 (ERβ LBD; binding towards the ERβ LBD, read-out: EC50) [nM] | Kd [3] [nM]
1 | CNC(=O)[C@H](Cc1ccc(O)cc1)NC(=O)[C@H](Cc1c[nH]cn1)NC(=O)[C@H](CC(C)C)NC(=O)[C@H](CC(C)C)NC(=O)[C@H](CCCNC(=N)N)NC(=O)[C@]1(C)CCCC=CC[C@]2(CCCN2C(C)=O)C(=O)N[C@@H](CC(C)C)C(=O)N[C@@H](CC(C)C)C(=O)N1 [PLL4-3, Ac-PL3-Leu-Leu-S5-Arg-Leu-Leu-His-Tyr-NHMe] (Ac-[X1]LL[S5]RLLHY-NHMe; staple 1-4) | 2.7 | < 0.1 | 73 ± 4 | 700 |  |  |  |  |  | 
2 | CNC(=O)[C@H](Cc1ccc(O)cc1)NC(=O)[C@@H](NC(=O)[C@H](CC(C)C)NC(=O)[C@H](CC(C)C)NC(=O)[C@H](CC(N)=O)NC(=O)[C@]1(C)CCCC=CC[C@]2(CCCN2C(C)=O)C(=O)N[C@@H](CCCCN)C(=O)N[C@@H](CC(C)C)C(=O)N1)[C@@H](C)O [PLL4-5, Ac-PL3-Lys-Leu-S5-Asn-Leu-Leu-Thr-Tyr-NHMe] (Ac-[X1]KL[S5]NLLTY-NHMe; staple 1-4) | 1.8 |  |  |  | 0.7 ± 0.2 (×10^−6) cm/sec | 74 ± 3 | 0.7 ± 0.2 | 880 (≈ 1030 µg/mL) | 3000 | 
3 | B1 |  |  |  |  |  |  |  |  |  | 160
